From patent publication US7241738B2, “Peptides effective in the treatment of tumors and other conditions requiring the removal or destruction of cells” (Nymox Pharmaceutical Corporation, priority 2001, dated 2007)
Several values for one entry are separate records, joined by “and”; a condition that tells them apart may be missing. Equal values may be shown once. Peptide text beside a SMILES is read from it.

What was measured:
[1] = tested on: muscle tissue, subcutaneous connective tissue, and dermis at injection sites; experiment: Injection into skin, subcutaneous tissue and extremity skeletal muscle of normal rats; histopathology at 24 hours; type: in vivo, rat
Excerpt: The individual foci of infiltration were excised, fixed in 10% formalin, embedded in paraffin, and stained and examined by standard histopathological methods.
The controls received saline alone.
Tissues were excised, fixed in 10% formalin, embedded in paraffin, and stained and examined by standard histopathological methods.

[2] = tested on: normal rodent muscle tissue, subcutaneous connective tissue, dermis; human and non-human origin tumors; details: dermis and a variety of human and non-human origin tumors in rodent models; cited from earlier work
rat prostate = experiment: Intraprostatic infusion in rats; prostate volume and histology at 72 hours; type: in vivo, rat (Sprague-Dawley); details: for prostate histology (H & E): intraprostatic infusion, rats sacrificed after 72 hours
Method: (§1) Male Sprague-Dawley rats (300 gram weight range) were anesthetized with ether and given NTP peptide #6 by intraprostatic infusion after open surgical visualization of the prostate. The injections consisted of 300 μl of NTP peptide #6, 1 mg/mL in PBS pH 7.4. (1.0 mg/kg) (n=8), control injections of PBS alone (n=6), and controls with no injection (n=2). Rats were painlessly sacrificed after 72 hours. Prostate glands were dissected, fixed in 10% buffered formalin for 24 hours, embedded in paraffin, sectioned, and stained with H & E. For each animal the entire prostate gland was embedded and sectioned. All stained sections were examined histologically and measured. For each prostate at least 4 histological sections were examined, and for each histological section two cross-sectional diameters (D) at 90° from each other were measured (total of ≧8 measurements per prostate). The mean diameter from these measurements for each prostate was used to estimate volume according to
as §1, with “Related Peptide #2” for “NTP peptide #6”, “Related Peptide #2,” for “NTP peptide #6,”, “>8” for “≧8”
The controls were the same as Example 1.
Normal rats were injected in the prostate as in the above Examples 1 and 4 with Related Peptide #3. Rats were painlessly sacrificed after 72 hours and their prostate glands were examined as in the above Examples 1 and 4.

CC[C@H](C)[C@H](NC(=O)[C@H](CCC(=O)O)NC(=O)[C@H](CC(C)C)NC(=O)[C@H](CCCCN)NC(=O)[C@@H](NC(=O)[C@H](CCCNC(=N)N)NC(=O)[C@H](CO)NC(=O)[C@@H](N)CC(C)C)[C@@H](C)CC)C(=O)N[C@@H](CCCCN)C(=O)O [NTP peptide #7, LSRIKLEIK] (H-LSRIKLEIK-OH; N-terminus and C-terminus assumed)
spread of necrosis beyond the site of injection [1]: did not appear to spread far beyond the site of injection

AD7c-NTP: ˜41 kD neural thread protein, membrane associated phosphoprotein, SEQ ID NO. 1
causing cell death in vivo [2]: effective agent for causing cell death

GDHGRPNLSRLKLAIKYEVKKM [Related Peptide #1]
histopathology of tissue at injection sites ([1]; at 0.1-1 mg/mL in saline): cell death and necrosis of tissue at the injection sites

GLLFPVFSVCYLIAPKSPLGL [Related Peptide #3]
prostate histology (H & E) (rat prostate): Significant cell loss and atrophy of prostate

IDQQVLSRIKLEIKRCL [NTP peptide #6]
prostate histology (H & E) (rat prostate): extensive loss of glandular epithelium, flattening and atrophy
reduction in prostate volume compared to controls (rat prostate; intraprostatic open infusion 1.0 mg/kg (300 μl, 1 mg/mL in PBS pH 7.4), 72 hours, vs untreated or PBS treated controls, estimated from mean diameters): 45% and > 40%

QQSIAVKFLAVFGVSI [Related Peptide #2]
prostate histology (H & E) (rat prostate): significant cell loss and atrophy in the prostate
